# Source: patent publication US20130130306A1, “ZN (II) BASED COLORIMETRIC SENSOR AND PROCESS FOR THE PREPARATION THEREOF” (COUNCIL OF SCIENTIFIC & INDUSTRIAL RESEARCH, priority 2010, published 2013)
# Entries after “also recorded” stand apart in the source; their conditions may differ.
# Tested on: living microbes (eukaryotes and prokaryotes)
# Assay: Toxicity and viability of cells after staining
# Format: cell-based
# Text: We also explored the possibility of using L.Zn/L.Zn.α-CD as the staining agent for prokaryotes (Gram +ve and Gram −ve bacterial cells). […] As expected stained cells for Gram +ve bacteria appeared longer as compared to those of the stained Gram −ve bacteria. The difference in the staining intensity for two different bacteria with the L.Zn.α-CD (Scheme 2) could be much better understood after going into the depth of cell biology of each bacterial cells and the detailed biochemistry involved while staining; besides, difference in cell structure and cell wall composition of the respective bacteria. […] Changes on the cell surfaces on binding of the dye, L.Zn (Scheme 1, Formula 1A) were also evident from the SEM images recorded for Gram −ve and Gram +ve bacteria, in absence and presence of staining agent (FIGS. 11C to 11F). Difference in the contrasts in the SEM images of the sample surfaces also signifies the non-homogeneous chemical nature of the sample surface. Relatively brighter cell exterior for Gram −ve bacteria, as compared to the Gram +ve one indicates the accumulation of higher negative charge on the extra-cellular surface. […] The growth profile of Eukaryotic Yeast cells (Saccharomyces cerevisiae) and Prokaryotic bacterial cells ([…]) in an aqueous culture medium in absence and presence of L.Zn (Scheme 1, Formula 1A) are shown in FIG. 12. Change in absorbance (at λmax=600 nm) vs time (t) was plotted up to 30 h; as no appreciable change in growth was observed thereafter. […] FIGS. 12a, 12c and 12e show the actual growth curve of Saccharomyces cerevisiae, Pseudomonas fluorescence and Bacillus megaterium, respectively with time. While, FIGS. 12b, 12d and 12f show relative build up of ATP in cytoplasm with time for Saccharomyces cerevisiae, Pseudomonas fluorescence and Bacillus megaterium, respectively in presence of L.Zn (Scheme 1, Formula 1A) (D1) and L.Zn.α-CD (Scheme 2) (D2). […]
compound,measurement,setting,value
CN(C)c1ccc(N=Nc2ccc(S(=O)(=O)N3CCCNCCNCCCNCC3)cc2)cc1.O=[N+]([O-])[O-].O=[N+]([O-])[O-].[Zn+2] [L.Zn],growth of stained cells in their respective media,after staining,stained cells were found to grow in their respective media
same,toxicity to living cells,"eukaryotes and prokaryotes, cell proliferation and growth after staining",non-toxic; also recorded: non toxic
same,"viability of stained cells, hanging drop in concavity slide","light microscope, until 3 h","cell growth, cell division, as well as their motility could be observed"
